# Data published in patent publication US20180250260A1, “METHODS FOR TREATING CANCER” (BOSTON BIOMEDICAL, INC., priority 2015, published 2018).
# Values joined by “and” are separate entries in the source; they are usually repeats but may differ in a detail not shown here. Equal entries are not always repeated. “Also recorded” adds a separate entry of the source.
# Key:
# [1] = Phase Ib open-label multi-center study, pharmacokinetics; assay type: in vivo, human; conditions: 240 mg BID with FOLFIRI, with and without bevacizumab
# Protocol: (§1) The effects of 2-acetylnaphtho[2,3-b]furan-4,9-dione in combination with FOLFIRI in patients with advanced gastrointestinal cancer, including CRC and gastric cancer, were studied in phase lb open-label, multi-center studies. In one phase lb open label, multi-center clinical study, the safety, tolerability, and preliminary anti-tumor activity of 2-acetylnaphtho[2,3-b]furan-4,9-dione in combination with FOLFIRI, with and without bevacizumab, were assessed in adult patients with advanced gastrointestinal cancer, including CRC and gastric cancer. In addition, the pharmacokinetic profile and the pharmacodynamics (biomarkers) of 2-acetylnaphtho[2,3-b]furan-4,9-dione in combination with FOLFIRI, with and without bevacizumab, were studied, and the recommended phase II dose (RP2D) of 2-acetylnaphtho[2,3-b]furan-4,9-dione and FOLFIRI, with or without bevacizumab, were evaluated.
# (§2) Pharmacokinetics and pharmacodynamics were evaluated and objective tumor response was assessed every 8 weeks using Response Evaluation Criteria In Solid Tumors (RECIST 1.1).
# [2] = tested on: advanced gastrointestinal cancer, including CRC and gastric cancer; assay: Phase Ib open-label multi-center study, anti-tumor activity (RECIST 1.1); assay type: in vivo, human; parameters: key to Best Response (RECIST 1.1): partial response (PR); stable disease (SD)
# Protocol: as §1
# In total, as of April 2015, 18 patients aged 40-72 were enrolled in the open label, multi-center, phase lb study (see Table 2). These patients were pretreated with an average of >3 prior lines of therapy. Of this group, 10 patients (56%) previously progressed on FOLFIRI.
# Of the 17 patients evaluable for response, 8 patients received 2-acetylnaphtho[2,3-b]furan-4,9-dione in combination with FOLFIRI and 9 patients received 2-acetylnaphtho[2,3-b]furan-4,9-dione in combination with FOLFIRI and bevacizumab (see FIG. 7).
# (§3) Patients received continuous oral administration of 2-acetylnaphtho[2,3-b]furan-4,9-dione twice daily in 28 day cycles. A FOLFIRI regimen was administered (with or without bevacizumab depending on patient) every 14 days. Specifically, 2-acetylnaphtho[2,3-b]furan-4,9-dione was administered at a dose of 240 mg BID in combination with FOLFIRI (5-FU 400 mg/m^2 bolus with 2400 mg/m^2, irinotecan 180 mg/m^2, and leucovorin 400 mg/m^2 infusion) with or without bevacizumab 5 mg/kg, administered bi-weekly until progression of disease, unacceptable toxicity, or other discontinuation criterion was met.
# as §2
# cancer stem cells = assay: Effect on cancer stem cells with and without 5-fluorouracil; assay type: cell-based; conditions: FIG. 5
# Excerpt: The effects of 2-acetylnaphtho[2,3-b]furan-4,9-dione was examined in cancer stem cells with and without 5-fluorouracil by using methods similar to those disclosed in U.S. pre-grant Publication No. 2012/0252763, Example 3.
# [3] = Phase Ib open-label multi-center study, safety and tolerability (adverse events); assay type: in vivo, human; conditions: 240 mg BID with FOLFIRI, with and without bevacizumab
# Protocol: as §1, §3
# [4] = 240 mg BID with FOLFIRI, with and without bevacizumab, 17 evaluable patients
# [5] = individual patients, 240 mg BID with chemotherapy backbone FOLFIRI
# [6] = individual patients, 240 mg BID with chemotherapy backbone FOLFIRI/Bev
# [7] = N = 18, possibly/probably/definitely related
smiles,measurement,setting,value
"CC(=O)c1cc2c(o1)C(=O)c1ccccc1C2=O [2-acetylnaphtho[2,3-b]furan-4,9-dione]",pharmacokinetic interactions,[1],No significant pharmacokinetic interactions were observed
same,regression in the PR patients (RECIST 1.1),"[2]; 240 mg BID with FOLFIRI, with and without bevacizumab",44% and 33%
same,patients with prolonged SD of ≥6 month,"[2]; 240 mg BID with FOLFIRI, with and without bevacizumab, 7 of 17 patients",41%
same,evaluable patients with prolonged SD (>6 months),"[2]; 240 mg BID with FOLFIRI, with and without bevacizumab, 10 of 17",59%
same,evaluable patients with reduced target lesions,"[2]; 240 mg BID with FOLFIRI, with and without bevacizumab, 15 of 17, FIG. 7",88%
same,number of patients with PR (RECIST 1.1),[2]; [4],2
same,number of patients with SD,[2]; [4],14
same,patients in whom anti-cancer activity was observed,"[2]; 240 mg BID with FOLFIRI, with and without bevacizumab, advanced CRC who had failed prior standard chemotherapy",94%
same,median progression-free survival (PFS),"[2]; 240 mg BID with FOLFIRI, with and without bevacizumab, evaluable patients",5.72 months
same,overall survival of patients with higher expression levels of Stat3 (pStat3) before treatment,"[2]; clinical trials, at least in CRC patients",prolonged overall survival
same,response of a patient with gastric adenocarcinoma with a metastatic lesion in the liver,"[2]; combination with FOLFIRI for 8 weeks, failed prior epirubicin, oxaliplatin and Xeloda, FIG. 8",complete response
same,median survival of pStat3-positive patients compared to pStat3-negative patients,[2]; in combination with FOLFIRI and bevacizumab,longer median survival
same,Best Response (RECIST 1.1),[2]; [5],SD (4×) and PR (3×)
same,Comment on course of disease,[2]; [5],"prolonged stable disease; also recorded: unequivocal progression; also recorded: prolonged stable disease,; also recorded: prolonged SD/PR,"
same,Weeks on Study,[2]; [5],25 weeks and 17 weeks (2×) and 16 weeks and 6 weeks and 3 weeks and 34+ weeks and 32+ weeks and 36 weeks
same,tumor growth,[2]; [5],"8% tumor growth, and 3% tumor growth"
same,tumor regression,[2]; [5],"19% tumor regression, and 44% tumor regression and 23% tumor regression and 17 tumor regression, % and 40% tumor regression, and 83% tumor regression,"
same,Best Response (RECIST 1.1),[2]; [6],SD
same,Comment on course of disease,[2]; [6],"prolonged stable disease,; also recorded: prolonged stable disease"
same,Weeks on Study,[2]; [6],85+ weeks and 29 weeks and 24 weeks and 18 weeks and 15 weeks and 14 weeks and 25 weeks (2×) and 42 weeks
same,tumor regression,[2]; [6],"25% tumor regression, and 14% tumor regression, and 18% tumor regression, and 4% tumor regression and 10% tumor regression and 21% tumor regression and 1% tumor regression; and 4% tumor regression; and 18% tumor regression;"
same,lesion formations in patients previously exposed to FOLFIRI but experiencing progression,[2]; with bi-weekly FOLFIRI with or without bevacizumab,reduced lesion formations in almost all of the patients
same,5-fluorouracil-induced increase in the number of cancer stem cells,cancer stem cells; added to 5-fluorouracil,attenuated
same,effect of the combination on cancer stem cell growth,cancer stem cells; combination with 5-fluorouracil,greater than additive effect
same,"Dehydration Grade 3 related to protocol therapy, number of patients",[3],1
same,dose limiting toxicity or new adverse events,[3],No dose limiting toxicity or new adverse events were seen
same,safety of the combination,[3],safely combined
same,"Abdominal Pain Grade 1, number of subjects",[3]; [7],7
same,"Abdominal Pain Grade 1, percent of total subjects",[3]; [7],38.9%
same,"Abdominal Pain Grade 2, number of subjects",[3]; [7],4
same,"Abdominal Pain Grade 2, percent of total subjects",[3]; [7],22.2%
same,"Abdominal Pain Grade 3, number of subjects",[3]; [7],0
same,"Abdominal Pain Grade 3, percent of total subjects",[3]; [7],0.0%
same,"Alopeda Grade 1, number of subjects",[3]; [7],4
same,"Alopeda Grade 1, percent of total subjects",[3]; [7],22.2%
same,"Alopeda Grade 2, number of subjects",[3]; [7],0
same,"Alopeda Grade 2, percent of total subjects",[3]; [7],0.0%
same,"Alopeda Grade 3, number of subjects",[3]; [7],0
same,"Alopeda Grade 3, percent of total subjects",[3]; [7],0.0%
same,"Anemia Grade 1, number of subjects",[3]; [7],2
same,"Anemia Grade 1, percent of total subjects",[3]; [7],11.1%
same,"Anemia Grade 2, number of subjects",[3]; [7],2
same,"Anemia Grade 2, percent of total subjects",[3]; [7],11.1%
same,"Anemia Grade 3, number of subjects",[3]; [7],0
same,"Anemia Grade 3, percent of total subjects",[3]; [7],0.0%
same,"Anorexia Grade 1, number of subjects",[3]; [7],12
same,"Anorexia Grade 1, percent of total subjects",[3]; [7],66.7%
same,"Anorexia Grade 2, number of subjects",[3]; [7],3
same,"Anorexia Grade 2, percent of total subjects",[3]; [7],16.7%
same,"Anorexia Grade 3, number of subjects",[3]; [7],0
same,"Anorexia Grade 3, percent of total subjects",[3]; [7],0.0%
same,"Diarrhea Grade 1, number of subjects",[3]; [7],18
same,"Diarrhea Grade 1, percent of total subjects",[3]; [7],100.0%
same,"Diarrhea Grade 2, number of subjects",[3]; [7],9
same,"Diarrhea Grade 2, percent of total subjects",[3]; [7],50.0%
same,"Diarrhea Grade 3, number of subjects",[3]; [7],3
same,"Diarrhea Grade 3, percent of total subjects",[3]; [7],16.7%
same,"Dry Mouth Grade 1, number of subjects",[3]; [7],2
same,"Dry Mouth Grade 1, percent of total subjects",[3]; [7],11.1%
same,"Dry Mouth Grade 2, number of subjects",[3]; [7],1
